± gives the expanded uncertainty stated by the source.
Test: xn = mol fraction of the nth substance listed
Conditions: for surface tension liquid-gas: Wilhelmy-plate method; for mass density: 100 kPa, Liquid, Vibrating tube method

CC(O)CO (stereo not given) [1,2-propanediol] + CC(C)O
Conditions | mass density, 298.15 K [kg/m3] | mass density, 308.15 K [kg/m3] | mass density, 318.15 K [kg/m3] | mass density, 328.15 K [kg/m3] | surface tension liquid-gas, 298.15 K [mN/m] | surface tension liquid-gas, 308.15 K [mN/m] | surface tension liquid-gas, 318.15 K [mN/m] | surface tension liquid-gas, 328.15 K [mN/m]
x2 = 0 | 1032.69 ± 0.05 | 1025.21 ± 0.05 | 1017.51 ± 0.04 | 1009.78 ± 0.04 | 35.74 ± 0.2 | 35.35 ± 0.2 | 34.96 ± 0.2 | 34.6 ± 0.2
x2 = 0.05 | 1020.3 ± 0.07 | 1012.75 ± 0.07 | 1005.08 ± 0.06 | 997.4 ± 0.06 | 32.86 ± 0.2 | 32.56 ± 0.2 | 32.35 ± 0.2 | 32.15 ± 0.2
x2 = 0.1 | 1007.84 ± 0.07 | 1000.22 ± 0.06 | 992.51 ± 0.07 | 984.7 ± 0.07 | 31.27 ± 0.2 | 30.98 ± 0.2 | 30.74 ± 0.2 | 30.54 ± 0.2
x2 = 0.15 | 995.3 ± 0.06 | 987.63 ± 0.07 | 979.84 ± 0.07 | 971.99 ± 0.07 | 30.1 ± 0.2 | 29.77 ± 0.2 | 29.48 ± 0.2 | 29.26 ± 0.2
x2 = 0.2 | 982.74 ± 0.07 | 974.98 ± 0.07 | 967.11 ± 0.07 | 959.2 ± 0.07 | 29.09 ± 0.2 | 28.74 ± 0.2 | 28.42 ± 0.2 | 28.18 ± 0.2
x2 = 0.25 | 970.17 ± 0.07 | 962.34 ± 0.07 | 954.39 ± 0.07 | 946.41 ± 0.08 | 28.21 ± 0.2 | 27.85 ± 0.2 | 27.51 ± 0.2 | 27.25 ± 0.2
x2 = 0.3 | 957.54 ± 0.07 | 949.69 ± 0.07 | 941.69 ± 0.08 | 933.61 ± 0.08 | 27.43 ± 0.2 | 27.04 ± 0.2 | 26.68 ± 0.2 | 26.4 ± 0.2
x2 = 0.35 | 944.87 ± 0.08 | 936.95 ± 0.08 | 928.9 ± 0.08 | 920.73 ± 0.08 | 26.72 ± 0.2 | 26.31 ± 0.2 | 25.94 ± 0.2 | 25.64 ± 0.2
x2 = 0.4 | 932.21 ± 0.08 | 924.2 ± 0.08 | 916.09 ± 0.08 | 907.91 ± 0.09 | 26.06 ± 0.2 | 25.64 ± 0.2 | 25.25 ± 0.2 | 24.93 ± 0.2
x2 = 0.45 | 919.52 ± 0.08 | 911.47 ± 0.09 | 903.3 ± 0.09 | 895.1 ± 0.09 | 25.43 ± 0.2 | 25.01 ± 0.2 | 24.64 ± 0.2 | 24.3 ± 0.2
x2 = 0.5 | 906.84 ± 0.09 | 898.7 ± 0.09 | 890.5 ± 0.09 | 882.26 ± 0.1 | 24.89 ± 0.2 | 24.47 ± 0.2 | 24.05 ± 0.2 | 23.71 ± 0.2
x2 = 0.55 | 894.16 ± 0.09 | 885.97 ± 0.09 | 877.7 ± 0.1 | 869.44 ± 0.1 | 24.39 ± 0.2 | 23.94 ± 0.2 | 23.52 ± 0.2 | 23.16 ± 0.2
x2 = 0.6 | 881.5 ± 0.1 | 873.25 ± 0.1 | 865 ± 0.1 | 856.69 ± 0.1 | 23.89 ± 0.2 | 23.44 ± 0.2 | 23.01 ± 0.2 | 22.64 ± 0.2
x2 = 0.65 | 868.82 ± 0.1 | 860.56 ± 0.1 | 852.29 ± 0.1 | 843.93 ± 0.11 | 23.43 ± 0.2 | 22.95 ± 0.2 | 22.51 ± 0.2 | 22.12 ± 0.2
x2 = 0.7 | 856.16 ± 0.1 | 847.8 ± 0.11 | 839.59 ± 0.11 | 831.21 ± 0.11 | 22.99 ± 0.2 | 22.49 ± 0.2 | 22.03 ± 0.2 | 21.62 ± 0.2
x2 = 0.75 | 843.49 ± 0.11 | 835.09 ± 0.11 | 826.8 ± 0.11 | 818.53 ± 0.12 | 22.58 ± 0.2 | 22.04 ± 0.2 | 21.56 ± 0.2 | 21.13 ± 0.2
x2 = 0.8 | 830.89 ± 0.11 | 822.4 ± 0.12 | 813.99 ± 0.12 | 805.71 ± 0.12 | 22.2 ± 0.2 | 21.63 ± 0.2 | 21.11 ± 0.2 | 20.65 ± 0.2
x2 = 0.85 | 818.33 ± 0.12 | 809.75 ± 0.12 | 801.22 ± 0.12 | 792.81 ± 0.13 | 21.82 ± 0.2 | 21.21 ± 0.2 | 20.66 ± 0.2 | 20.16 ± 0.2
x2 = 0.9 | 805.84 ± 0.12 | 797.18 ± 0.12 | 788.63 ± 0.13 | 780.09 ± 0.13 | 21.47 ± 0.2 | 20.82 ± 0.2 | 20.23 ± 0.2 | 19.68 ± 0.2
x2 = 0.95 | 793.45 ± 0.12 | 784.7 ± 0.13 | 776.1 ± 0.13 | 767.47 ± 0.13 | 21.12 ± 0.2 | 20.43 ± 0.2 | 19.8 ± 0.2 | 19.21 ± 0.2

CC(O)CO (stereo not given) [1,2-propanediol] + O
Conditions | mass density, 298.15 K [kg/m3] | mass density, 308.15 K [kg/m3] | mass density, 318.15 K [kg/m3] | mass density, 328.15 K [kg/m3] | surface tension liquid-gas, 298.15 K [mN/m] | surface tension liquid-gas, 308.15 K [mN/m] | surface tension liquid-gas, 318.15 K [mN/m] | surface tension liquid-gas, 328.15 K [mN/m]
x1 = 0.05 | 1011.79 ± 0.07 | 1007.53 ± 0.06 | 1002.61 ± 0.06 | 997.16 ± 0.06 | 56.18 ± 0.21 | 54.93 ± 0.21 | 53.89 ± 0.21 | 52.6 ± 0.21
x1 = 0.1 | 1022.73 ± 0.06 | 1017.48 ± 0.05 | 1011.69 ± 0.05 | 1005.39 ± 0.05 | 50.94 ± 0.2 | 49.9 ± 0.2 | 48.9 ± 0.2 | 47.83 ± 0.2
x1 = 0.15 | 1030.33 ± 0.05 | 1024.23 ± 0.05 | 1017.73 ± 0.05 | 1010.88 ± 0.05 | 47.41 ± 0.2 | 46.53 ± 0.2 | 45.71 ± 0.2 | 44.66 ± 0.2
x1 = 0.2 | 1035.27 ± 0.05 | 1028.47 ± 0.05 | 1021.65 ± 0.05 | 1014.32 ± 0.05 | 45.19 ± 0.2 | 44.36 ± 0.2 | 43.45 ± 0.2 | 42.52 ± 0.2
x1 = 0.25 | 1038.27 ± 0.05 | 1031.17 ± 0.05 | 1023.85 ± 0.05 | 1016.27 ± 0.04 | 43.64 ± 0.2 | 42.89 ± 0.2 | 42.15 ± 0.2 | 41.17 ± 0.2
x1 = 0.3 | 1039.85 ± 0.05 | 1032.55 ± 0.05 | 1025.01 ± 0.05 | 1017.25 ± 0.04 | 42.6 ± 0.2 | 41.92 ± 0.2 | 41.19 ± 0.2 | 40.38 ± 0.2
x1 = 0.35 | 1040.55 ± 0.05 | 1033.05 ± 0.05 | 1025.42 ± 0.05 | 1017.54 ± 0.04 | 41.43 ± 0.2 | 40.86 ± 0.2 | 40.19 ± 0.2 | 39.49 ± 0.2
x1 = 0.4 | 1040.6 ± 0.05 | 1033.02 ± 0.05 | 1025.34 ± 0.05 | 1017.47 ± 0.04 | 40.47 ± 0.2 | 39.78 ± 0.2 | 39.24 ± 0.2 | 38.57 ± 0.2
x1 = 0.45 | 1040.28 ± 0.05 | 1032.76 ± 0.05 | 1025.05 ± 0.05 | 1017.1 ± 0.04 | 39.44 ± 0.2 | 38.89 ± 0.2 | 38.36 ± 0.2 | 37.8 ± 0.2
x1 = 0.5 | 1039.83 ± 0.05 | 1032.3 ± 0.05 | 1024.54 ± 0.05 | 1016.59 ± 0.04 | 38.76 ± 0.2 | 38.27 ± 0.2 | 37.73 ± 0.2 | 37.19 ± 0.2
x1 = 0.55 | 1039.24 ± 0.05 | 1031.7 ± 0.05 | 1023.93 ± 0.05 | 1016 ± 0.04 | 37.95 ± 0.2 | 37.5 ± 0.2 | 37.07 ± 0.2 | 36.55 ± 0.2
x1 = 0.6 | 1038.53 ± 0.05 | 1031.03 ± 0.05 | 1023.29 ± 0.05 | 1015.39 ± 0.04 | 37.4 ± 0.2 | 36.94 ± 0.2 | 36.63 ± 0.2 | 36.15 ± 0.2
x1 = 0.65 | 1037.84 ± 0.05 | 1030.31 ± 0.05 | 1022.58 ± 0.05 | 1014.69 ± 0.04 | 36.98 ± 0.2 | 36.57 ± 0.2 | 36.15 ± 0.2 | 35.75 ± 0.2
x1 = 0.7 | 1037.09 ± 0.05 | 1029.56 ± 0.05 | 1021.87 ± 0.05 | 1014 ± 0.04 | 36.8 ± 0.2 | 36.35 ± 0.2 | 35.89 ± 0.2 | 35.53 ± 0.2
x1 = 0.75 | 1036.33 ± 0.05 | 1028.81 ± 0.05 | 1021.11 ± 0.05 | 1013.3 ± 0.04 | 36.62 ± 0.2 | 36.24 ± 0.2 | 35.79 ± 0.2 | 35.32 ± 0.2
x1 = 0.8 | 1035.57 ± 0.05 | 1028.06 ± 0.05 | 1020.37 ± 0.05 | 1012.54 ± 0.04 | 36.44 ± 0.2 | 36.1 ± 0.2 | 35.66 ± 0.2 | 35.17 ± 0.2
x1 = 0.85 | 1034.81 ± 0.05 | 1027.32 ± 0.05 | 1019.61 ± 0.05 | 1011.8 ± 0.04 | 36.26 ± 0.2 | 35.94 ± 0.2 | 35.52 ± 0.2 | 35.04 ± 0.2
x1 = 0.9 | 1034.08 ± 0.05 | 1026.59 ± 0.05 | 1018.9 ± 0.05 | 1011.06 ± 0.04 | 36.08 ± 0.2 | 35.76 ± 0.2 | 35.4 ± 0.2 | 34.88 ± 0.2
x1 = 0.95 | 1033.35 ± 0.05 | 1025.88 ± 0.05 | 1018.19 ± 0.04 | 1010.37 ± 0.04 | 35.9 ± 0.2 | 35.52 ± 0.2 | 35.14 ± 0.2 | 34.75 ± 0.2
x1 = 1 | 1032.69 ± 0.05 | 1025.21 ± 0.05 | 1017.51 ± 0.04 | 1009.78 ± 0.04 | 35.74 ± 0.2 | 35.35 ± 0.2 | 34.96 ± 0.2 | 34.6 ± 0.2
